From US20160008470A1, “STORAGE-STABLE COMPOSITIONS OF GLYCEROL MONOALKYL ETHERS” (AIR LIQUIDE SANTE (INTERNATIONAL), priority 2000, published 2016)
Counter-ions that a name gives are not always drawn.

Assays:
[1] = Merckoquant peroxide test (ppm of H2O2) during storage at room temperature; details: for stabilizing effect: 0.05% by weight of the antioxidant; for stabilization of the glycerol monoalkyl ethers over a long period (peroxides, neck-in effect): added to Sensiva SC 50, storage at room temperature, Table 1; for ppm of H2O2: storage at room temperature
Protocol: The data in “ppm of H2O2” refer to the peroxide determination using Merckoquant® peroxide test analysis strips. This semiquantitative method for determining peroxide was carried out as follows: • About 0.5 g of the sample to be investigated is placed in a test tube and treated with the same amount of demineralized water. The two phases are mixed by shaking, and a Merckoquant® peroxide test analysis strip is dipped in for one second. The damp strip is removed from the liquid and the peroxide content is read off after 15 seconds using the reference scale and noted. If the peroxide content is too high, the amount is doubled with demineralized water, again shaken etc., until a reading is possible using the reference scale. The value obtained is back-calculated using the dilution.
(§2) Following preparation of the samples, the value for ppm of H2O2 and the pH were determined at regular intervals.

[2] = pH of 50% strength slurry in demineralized water, Merck pH indicator strips; format: physicochemical; details: storage at room temperature
Text: The pH of the anhydrous solutions is given as the value which a 50% strength slurry of the respective anhydrous solution in demineralized water has, determined using Merck® pH indicator strips.

[3] = Peroxide number (PON) by titration with sodium thiosulphate; format: physicochemical; details: for peroxide number as a function of time: Example 2, salt solution added to Sensiva SC 50
Protocol: The peroxide number (PON) gives the amount peroxide in milliequivalents of active oxygen which is present in 1000 g of substance, determined in accordance with the method below. • 5.00 g of substance are weighed into a 250 ml Erlenmeyer flask with ground-glass stopper and dissolved in 30 ml of a mixture of 2 parts by volume of chloroform R and 3 parts by volume of acetic acid 98% R with shaking. […] Following the addition of 5 ml of starch solution R, the titration is continued with vigorous shaking until the blue coloration disappears (n1 ml of 0.01 N sodium thiosulphate solution). A control experiment is carried out under the same conditions (n2 ml of 0.01 N sodium thiosulphate solution). For this, at most 0.1 ml of 0.01 N sodium thiosulphate solution must be consumed.
The peroxide number is calculated as follows: […]
where m is the initial weight of the substance in grams.
The method is explained in more detail in DAB 9-Kornrnentar [German Pharmacopoeia 9 Commentary] (K. Hartke, E. Mutschler, Editor, Wissenschaftliche Verlagsgesellschaft mbH Stuttgart, 9th edition 1986).
(§1) The peroxide number of compositions of Sensiva® SC 50 and Lipacide e8G salts was compared with the stability of mixtures of Sensiva® SC 50 and other 30 salts.

[4] = Appearance of the storage bottle (neck-in effect); format: physicochemical; details: for Appearance of the bottle: Example 1, storage at room temperature
Protocol: as §2

[5] = Appearance of the composition; format: physicochemical
Text: n.c.=no change, d.=days, m.=months, w.=weeks, y.=years, n.d.=not detectable, cl=clear, c=colourless, kr=crystals, yl=yellowish, S.=start of the investigation.
as §1

Hazen colour number = format: physicochemical
[6] = Example 2, start of the investigation
[7] = Example 2, after storage, time not printed (line below the 2 y. 2 m. lines)

## COc1ccc(O)c(C(C)(C)C)c1 [BHA, 3-tert-butyl-4-hydroxyanisole]
[1]
  stabilizing effect: exhibit the stabilizing effect
  stabilization of the glycerol monoalkyl ethers over a long period (peroxides, neck-in effect): stabilize the glycerol monoalkyl ethers over a long period

## Cc1cc(C(C)(C)C)c(O)c(C(C)(C)C)c1 [BHT, 2,6-di-tert-butyl-p-cresol]
[1]
  stabilizing effect: exhibit the stabilizing effect
  stabilization of the glycerol monoalkyl ethers over a long period (peroxides, neck-in effect): stabilize the glycerol monoalkyl ethers over a long period

## CCCCC(CC)COCC(O)CO (stereo not shown) [Experiment A(Alu), 3-[(2-ethylhexyl)oxy]-1,2-propanediol]
[2]; 2 m.
  pH: 3
[2]; 2 w.
  pH: 3
[2]; 3 w.
  pH: 3
[2]; 4 w.
  pH: 3
[2]; 5 w.
  pH: 3
[2]; 6 w.
  pH: 3
[2]; 7 w.
  pH: 3
[2]; 8 w.
  pH: 3
[2]; 7 d.
  pH: 3
[2]; 9 d.
  pH: 3
[3]; Example 1, start of the investigation
  PON S.: 0.5 milliequivalents of active oxy
[1]; 1 y.
  ppm of H2O2: 10 ppm
[1]; 2 m., listed as A(Alu)
  ppm of H2O2: 25 ppm
[1]; 2 w., listed as A(Alu)
  ppm of H2O2: 2 ppm
[1]; 2 y., listed as A(Alu)
  ppm of H2O2: 0 ppm
[1]; 3 m., listed as A(Alu)
  ppm of H2O2: 25-50 ppm
[1]; 3 w.
  ppm of H2O2: 2-5 ppm
[1]; 4 m., listed as A(Alu)
  ppm of H2O2: 25-50 ppm
[1]; 4 w.
  ppm of H2O2: 2-5 ppm
[1]; 5 m., listed as A(Alu)
  ppm of H2O2: 50 ppm
[1]; 5 w.
  ppm of H2O2: 2-5 ppm
[1]; 6 w.
  ppm of H2O2: 2-5 ppm
[1]; 6.5 m., listed as A(Alu)
  ppm of H2O2: 50 ppm
[1]; 7 w., listed as A(Alu)
  ppm of H2O2: 5 ppm
[1]; 8 w., listed as A(Alu)
  ppm of H2O2: 5 ppm
[1]; 8.5 m., listed as A(Alu)
  ppm of H2O2: 25-50 ppm
[1]; 11 m., listed as A(Alu)
  ppm of H2O2: 10-25 ppm
[1]; 14 m.
  ppm of H2O2: 10 ppm
[1]; 16 m.
  ppm of H2O2: 10 ppm
[1]; 7 d., listed as A(Alu)
  ppm of H2O2: 0.5 ppm
[1]; 9 d., listed as A(Alu)
  ppm of H2O2: 0.5-1 ppm
[4]; 2 y. 11 m., listed as A(Alu)
  Appearance of the bottle: n.c.
[4]; 2 y., listed as A(Alu)
  Appearance of the bottle: n.c.

## CCCCC(CC)COCC(O)CO (stereo not shown) [Experiment A, 3-[(2-ethylhexyl)oxy]-1,2-propanediol]
[3]; Example 1, storage at room temperature, 2 y. 11 m., n.d.=not detectable
  PON 2 y. 11 m.: 25.3 milliequivalents of active oxy
[3]; [6]
  PONS.: 10 milliequivalents of active oxy
[3]; Example 2, storage 2 y. 2 m.
  PON: 5-10 milliequivalents of active oxy
[3]; Example 2, storage 6 m.
  PON: 20 milliequivalents of active oxy
[3]; Example 2, storage 6 w.
  PON: 25 milliequivalents of active oxy
[3]; Example 2, storage 11 w.
  PON: 25 milliequivalents of active oxy
[3]; Example 2, storage 4 d.
  PON: 10 milliequivalents of active oxy
[3]; Example 2, storage 9 d.
  PON: 10-25 milliequivalents of active oxy
[5]; [7]
  Appearance: cl c
[5]; [6]
  Appearance S.: cl c
Hazen colour number; Example 1, storage at room temperature, 8 w.
  Hazen colour number: <5
Hazen colour number; [7]
  Hazen colour number: 0
[1]; Table 1, storage
  development of the peroxide content in stored preparations: chaotic development of the peroxide number
[1]; 2 m., listed as A
  ppm of H2O2: 2-5 ppm
[1]; 2 w., listed as A
  ppm of H2O2: 2-5 ppm
[1]; 2 y., listed as A
  ppm of H2O2: 10-25 ppm
[1]; 3 m., listed as A
  ppm of H2O2: 2-5 ppm
[1]; 4 m., listed as A
  ppm of H2O2: 5 ppm
[1]; 5 m., listed as A
  ppm of H2O2: 5 ppm
[1]; 6.5 m., listed as A
  ppm of H2O2: 5 ppm
[1]; 7 w., listed as A
  ppm of H2O2: 2-5 ppm
[1]; 8 w., listed as A
  ppm of H2O2: 2-5 ppm
[1]; 8.5 m., listed as A
  ppm of H2O2: 5 ppm
[1]; 11 m., listed as A
  ppm of H2O2: 10 ppm
[1]; 7 d., listed as A
  ppm of H2O2: 2 ppm
[1]; 9 d., listed as A
  ppm of H2O2: 2 ppm
[4]; 2 y. 11 m., listed as A
  Appearance of the bottle: consider-
[4]; 2 y., listed as A
  Appearance of the bottle: neck in
[4]; Example 2, storage 2 y. 2 m.
  PE bottle: considerable

## CCCCCCCC(=O)NCC(=O)O [Lipacide C8G sodium salts, N-octanoylglycine]
[3]
  peroxide number as a function of time: the peroxide number decreases as a function of time
[4]; Example 2, salt solution added to Sensiva SC 50
  neck-in effect: the neck-in effect is avoided

## CCCCCCCCCCCCCCCC(=O)OC[C@H](O)[C@H]1OC(=O)C(O)=C1O [ascorbyl palmitate, 6-0-palmitoyl-L-ascorbic acid]
[1]; Experiments N and O
  effect on stabilization of the glycerol monoalkyl ether by vitamin E: inhibit its stabilization by vitamin E
[1]
  stabilization of the glycerol monoalkyl ethers over a long period (peroxides, neck-in effect): does not stabilize the glycerol monoalkyl ethers

## CC(C)(CO)[C@@H](O)C(=O)NCCCO [dexpanthenol]
[1]
  stabilizing effect: exhibit the stabilizing effect
  stabilization of the glycerol monoalkyl ethers over a long period (peroxides, neck-in effect): stabilize the glycerol monoalkyl ethers over a long period

## O=C([O-])CC(O)(CC(=O)[O-])C(=O)[O-].[Na+].[Na+].[Na+] [sodium citrate]
[3]
  peroxide number as a function of time: could not be achieved

## O=S(=O)([O-])[O-].[Na+].[Na+] [sodium sulphate]
[3]
  peroxide number as a function of time: could not be achieved

## Cc1c(C)c2c(c(C)c1O)CC[C@@](C)(CCC[C@H](C)CCC[C@H](C)CCCC(C)C)O2 [vitamin E, Alpha-tocopherol]
[1]
  stabilizing effect: exhibit the stabilizing effect
  stabilization of the glycerol monoalkyl ethers over a long period (peroxides, neck-in effect): stabilize the glycerol monoalkyl ethers over a long period
